Reference: US20060281771A1, “SYNERGISTIC MODULATION OF FLT3 KINASE USING AMINOQUINOLINE AND AMINOQUINAZOLINE KINASE MODULATORS” (priority 2005, published 2006)
pIC50: −log10 of the molar value.

Legend:
MV4-11 cells = assay: Inhibition of MV4-11 cell proliferation (CellTiterGlo, 72 h); assay type: cell-based; details: Homo sapiens; 72 h growth inhibition
Summary of the method: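 MV4-11 (FLT3-ITD) cells, 10,000/well in RPMI/10% FBS with 1 ng/ml GM-CSF, treated 72 h at 37 °C; some runs in 1:1 medium/human plasma. Growth read as ATP luminescence; 100% inhibition = Day 0 RLU, 0% = DMSO at Day 3. IC50 from sigmoidal variable-slope fit of triplicates.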

[1] = target: T1, isolated kinase domain of the human FLT3 receptor (a.a. 571-993) (Homo sapiens, UniProt P36888); assay: FLT3 fluorescence polarization kinase assay; assay type: biochemical
T1 construct: human FLT3 receptor (a.a. 571-993)
T1 sequence (P36888 571-993): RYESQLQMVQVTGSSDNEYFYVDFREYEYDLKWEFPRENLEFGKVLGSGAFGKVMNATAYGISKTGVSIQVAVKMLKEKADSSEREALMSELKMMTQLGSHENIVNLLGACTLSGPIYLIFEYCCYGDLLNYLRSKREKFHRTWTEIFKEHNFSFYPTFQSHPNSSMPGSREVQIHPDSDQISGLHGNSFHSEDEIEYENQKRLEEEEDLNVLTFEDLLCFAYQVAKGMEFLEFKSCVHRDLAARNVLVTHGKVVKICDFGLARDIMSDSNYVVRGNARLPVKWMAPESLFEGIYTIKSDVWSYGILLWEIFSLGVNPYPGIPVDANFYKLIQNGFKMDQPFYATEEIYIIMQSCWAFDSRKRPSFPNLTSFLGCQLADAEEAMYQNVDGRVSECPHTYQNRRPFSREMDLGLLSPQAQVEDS
Description: The FLT3 FP assay utilizes the fluorescein-labeled phosphopeptide and the anti-phosphotyrosine antibody included in the Panvera Phospho-Tyrosine Kinase Kit (Green) supplied by Invitrogen. When FLT3 phosphorylates polyGlu4Tyr, the fluorescein-labeled phosphopeptide is displaced from the anti-phosphotyrosine antibody by the phosphorylated poly Glu4Tyr, thus decreasing the FP value. […] The kinase reaction is stopped with the addition of EDTA. The fluorescein-labeled phosphopeptide and the anti-phosphotyrosine antibody are added and incubated for 30 minutes at room temperature.
All data points are an average of triplicate samples. Inhibition and IC50 data analysis was done with GraphPad Prism using a non-linear regression fit with a multiparamater, sigmoidal dose-response (variable slope) equation.

SMILES	pIC50 (MV4-11 cells)	pIC50 [1]
COc1cc2ncnc(N3CCC(OC(=O)Nc4ccc(C(C)C)cc4)C3)c2cc1OC (stereo not shown) [Compound 2, (4-Isopropyl-phenyl)-carbamic acid 1-(6,7-dimethoxy-quinazolin-4-yl)-pyrrolidin-3-yl ester]	6.61	8.15
COc1cc2ncnc(N3CCC(NC(=O)Nc4ccc(C(C)C)cc4)C3)c2cc1OC (stereo not shown) [Compound 7, 1-[1-(6,7-Dimethoxy-quinazolin-4-yl)-pyrrolidin-3-yl]-3-(4-isopropyl-phenyl)-urea]	6.04	7.80
COc1cc2ncnc(N3CCCC(NC(=O)Nc4ccc(C(C)C)cc4)C3)c2cc1OC (stereo not shown) [Compound 28, 1-[1-(6,7-Dimethoxy-quinazolin-4-yl)-piperidin-3-yl]-3-(4-isopropyl-phenyl)-urea]	5.82	6.29
CC(C)c1ccc(NC(=O)OC2CCN(c3ncnc4ccc(I)cc34)C2)cc1 (stereo not shown) [Compound 20, (4-Isopropyl-phenyl)-carbamic acid 1-(6-iodo-quinazolin-4-yl)-pyrrolidin-3-yl ester]	6.58	7.02
COc1cc2ncnc(N3CCC(CC(=O)Nc4ccc(C(C)C)cc4)CC3)c2cc1OC [Compound 5, 2-[1-(6,7-Dimethoxy-quinazolin-4-yl)-piperidin-4-yl]-N-(4-isopropyl-phenyl)-acetamide]	8.15	7.92
COc1cc2ncnc(N3CCC(OC(=O)Nc4ccc(OC(C)C)cc4)C3)c2cc1OC (stereo not shown) [Compound 15, (4-Isopropoxy-phenyl)-carbamic acid 1-(6,7-dimethoxy-quinazolin-4-yl)-pyrrolidin-3-yl ester]	6.06	7.38
COc1cc2ncnc(N3CCCC(OC(=O)Nc4ccc(C(C)C)cc4)C3)c2cc1OC (stereo not shown) [Compound 31, (4-Isopropyl-phenyl)-carbamic acid 1-[1-(6,7-dimethoxy-quinazolin-4-yl)-piperidin-3-yl]ester]	5.77	6.17
COc1cc2ncnc(N3CCC(OC(=O)Nc4ccc(OC5CCC5)nc4)C3)c2cc1OC (stereo not shown) [Compound 12, (6-Cyclobutoxy-pyridin-3-yl)-carbamic acid 1-(6,7-dimethoxy-quinazolin-4-yl)-pyrrolidin-3-yl ester]	7.19	7.46
COc1cc2ncnc(N3CCCCC3COC(=O)Nc3ccc(C(C)C)cc3)c2cc1OC (stereo not shown) [Compound 33, (4-Isopropyl-phenyl)-carbamic acid 1-(6,7-dimethoxy-quinazolin-4-yl)-piperidin-2-ylmethyl ester]	6.46	6.00
COc1cc2ncnc(N3CCC(NC(=O)Cc4ccc(C(C)C)cc4)CC3)c2cc1OC [Compound 21, N-[1-(6,7-Dimethoxy-quinazolin-4-yl)-piperidin-4-yl]-2-(4-isopropyl-phenyl)-acetamide]	7.11	6.82
COc1cc2ncnc(N3CCC(OC(=O)Nc4ccc(OC(C)C)cc4)CC3)c2cc1OC [Compound 3, (4-Isopropoxy-phenyl)-carbamic acid 1-(6,7-dimethoxy-quinazolin-4-yl)-piperidin-4-yl ester]	6.33	8.10
COc1cc2ncnc(N3CCC(CC(=O)Nc4ccc(C(C)C)cc4)C3)c2cc1OC (stereo not shown) [Compound 6, 2-[11-(6,7-Dimethoxy-quinazolin-4-yl)-pyrrolidin-3-yl]-N-(4-isopropyl-phenyl)-acetamide]	8.10	7.85
COc1cc2ncnc(N3CCC(NC(=O)Cc4ccc(C(C)C)cc4)C3)c2cc1OC (stereo not shown) [Compound 35, N-[1-(6,7-Dimethoxy-quinazolin-4-yl)-pyrrolidin-3-yl]-2-(4-isopropyl-phenyl)-acetamide]	5.72	5.89

Other lines, results leading:

pIC50 (MV4-11 cells)	pIC50 [1]	SMILES
5.73	7.64	COc1cc2ncnc(N3CCC(NC(=O)Nc4ccc(OC(C)C)cc4)C3)c2cc1OC (stereo not shown) [Compound 8, 1-[1-(6,7-Dimethoxy-quinazolin-4-yl)-pyrrolidin-3-yl]-3-(4-isopropoxy-phenyl)-urea]
6.74	8.22	COc1cc2ncnc(N3CCC(OC(=O)Nc4ccc(C(C)C)cc4)CC3)c2cc1OC [Compound 1, (4-Isopropyl-phenyl)-carbamic acid 1-(6,7-dimethoxy-quinazolin-4-yl)-piperidin-4-yl ester]
5.85	6.06	COc1cc2ncc(C#N)c(N3CCC(OC(=O)Nc4ccc(OC(C)C)cc4)C3)c2cc1OC (stereo not shown) [Compound 32, (4-Isopropoxy-phenyl)-carbamic acid 1-(3-cyano-6,7-dimethoxy-quinolin-4-yl)-pyrrolidin-3-yl ester]
5.86	7.17	COc1cc2ncnc(N3CCC(N(C)C(=O)Nc4ccc(C(C)C)cc4)C3)c2cc1OC (stereo not shown) [Compound 19, 1-[1-(6,7-Dimethoxy-quinazolin-4-yl)-pyrrolidin-3-yl]-3-(4-isopropyl-phenyl)-1-methyl-urea]
7.07	7.96	COc1cc2ncnc(N3CCCC(COC(=O)Nc4ccc(C(C)C)cc4)C3)c2cc1OC (stereo not shown) [Compound 4]
5.72	6.36	COc1cc2ncc(C#N)c(N3CCC(NC(=O)Nc4ccc(C(C)C)cc4)C3)c2cc1OC (stereo not shown) [Compound 26, 1-[1-(3-Cyano-6,7-dimethoxy-quinolin-4-yl)-pyrrolidin-3-yl]-3-(4-isopropyl-phenyl)-urea]
5.89	7.18	COc1cc2ncnc(N3CCC(CNC(=O)Nc4ccc(C(C)C)cc4)CC3)c2cc1OC [Compound 18, 1-[1-(6,7-Dimethoxy-quinazolin-4-yl)-piperidin-4-ylmethyl]-3-(4-isopropyl-phenyl)-urea]
5.70	6.73	COc1cc2ncnc(N3CCC(C(=O)Nc4ccc(OC(C)C)cc4)CC3)c2cc1OC [Compound 23, 1-(6,7-Dimethoxy-quinazolin-4-yl)-piperidine-4-carboxylic acid (4-isopropoxy-phenyl)-amide]
5.82	5.67	COc1cc2ncc(C#N)c(N3CCC(OC(=O)Nc4ccc(C(C)C)cc4)C3)c2cc1OC (stereo not shown) [Compound 37, (4-Isopropyl-phenyl)-carbamic acid 1-(3-cyano-6,7-dimethoxy-quinolin-4-yl)-pyrrolidin-3-yl ester]
6.91	7.20	CCN(CC)CC#Cc1ccc2ncnc(N3CCC(OC(=O)Nc4ccc(C(C)C)cc4)C3)c2c1 (stereo not shown) [Compound 17, (4-Isopropyl-phenyl)-3-carbamic acid 1-[6-(3-diethylamino-prop-1-ynyl)-quinazolin-4-yl]-pyrrolidin-3-yl ester]
5.77	6.27	COc1cc2ncc(C#N)c(N3CCC(NC(=O)Nc4ccc(OC(C)C)cc4)C3)c2cc1OC (stereo not shown) [Compound 29, 1-[1-(3-Cyano-6,7-dimethoxy-quinolin-4-yl)-pyrrolidin-3-yl]-3-(4-isopropoxy-phenyl)-urea]
6.07	7.43	COc1cc2ncnc(N3CCC(C(=O)Nc4ccc(C(C)C)cc4)CC3)c2cc1OC [Compound 13, 1-(6,7-Dimethoxy-quinazolin-4-yl)-piperidine-4-carboxylic acid (4-isopropyl-phenyl)-amide]
6.71	7.60	COc1cc2ncnc(N3CCCC3COC(=O)Nc3ccc(C(C)C)cc3)c2cc1OC (stereo not shown) [Compound 9]
6.56	7.35	CC(C)c1ccc(NC(=O)NC2CCN(c3ncnc4ccccc34)C2)cc1 (stereo not shown) [Compound 16, 1-(4-Isopropyl-phenyl)-3-(1-quinazolin-4-yl-pyrrolidin-3-yl)urea]
5.50	5.77	COc1cc2ncnc(N3CCC(N(C)C(=O)Nc4ccc(OC(C)C)cc4)C3)c2cc1OC (stereo not shown) [Compound 36, 1-[1-(6,7-Dimethoxy-quinazolin-4-yl)-pyrrolidin-3-yl]-3-(4-isopropoxy-phenyl)-1-methyl-urea]
6.87	7.43	CC(C)c1ccc(NC(=O)OC2CCN(c3ncnc4ccc(C#CCO)cc34)C2)cc1 (stereo not shown) [Compound 14, (4-Isopropyl-phenyl)-carbamic acid 1-[6-(3-hydroxy-prop-1-ynyl)-quinazolin-4-yl]-pyrrolidin-3-yl ester]
